Test results as given in paper PMC12028158, “Synthesis and In Vitro Evaluation of the Anticancer Effect of Novel Phosphonium Vindoline Derivatives” (International Journal of Molecular Sciences, 2025).
Like-named read-outs stand apart in the source and are kept apart here.

Columns and labels:
Format in all cases: cell-based
OVCAR-5 [1] = experiment: NCI60 five-dose screen; details: Homo sapiens
SK-MEL-2 = experiment: NCI60 one-dose screen; details: Homo sapiens
MDA-MB-231/ATCC = experiment: NCI60 one-dose screen; details: Homo sapiens
SK-MEL-28 = experiment: NCI60 five-dose screen; details: Homo sapiens
[2] = test system: Non-small Cell Lung Cancer panel; experiment: NCI60 five-dose screen, panel mean; details: Homo sapiens, read-out: Mean GI50
NCI-H226 = experiment: NCI60 one-dose screen; details: Homo sapiens
RXF 393 = experiment: NCI60 five-dose screen; details: Homo sapiens
SW-620 = experiment: NCI60 one-dose screen; details: Homo sapiens
HT29 = experiment: NCI60 one-dose screen; details: Homo sapiens
KM12 = experiment: NCI60 five-dose screen; details: Homo sapiens
NCI-H522 [3] = experiment: NCI60 one-dose screen; details: Homo sapiens
MDA-MB-435 = experiment: NCI60 five-dose screen; details: Homo sapiens
NCI-H460 = experiment: NCI60 five-dose screen; details: Homo sapiens
OVCAR-4 [4] = experiment: NCI60 five-dose screen; details: Homo sapiens
HL-60(TB) = experiment: NCI60 five-dose screen; details: Homo sapiens
HCT-15 = experiment: NCI60 one-dose screen; details: Homo sapiens
DU-145 = experiment: NCI60 one-dose screen; details: Homo sapiens
Renal Cancer panel = experiment: NCI60 five-dose screen, panel mean; details: Homo sapiens, read-out: Mean GI50
NCI-H522 [5] = experiment: NCI60 five-dose screen; details: Homo sapiens
OVCAR-5 [6] = experiment: NCI60 one-dose screen; details: Homo sapiens
[7] = test system: 60 human tumor cell lines (NCI60); experiment: NCI60 one-dose screen, overall mean; details: for activity at 10 µM: Homo sapiens, read-out: Mean growth percent
ACHN = experiment: NCI60 five-dose screen; details: Homo sapiens
SK-OV-3 [8] = experiment: NCI60 one-dose screen; details: Homo sapiens
LOX IMVI = experiment: NCI60 one-dose screen; details: Homo sapiens, read-out: Growth percent
NCI-H23 = experiment: NCI60 one-dose screen; details: Homo sapiens
A498 = experiment: NCI60 five-dose screen; details: Homo sapiens
786-0 = experiment: NCI60 one-dose screen; details: Homo sapiens
SK-OV-3 [9] = experiment: NCI60 five-dose screen; details: Homo sapiens
RPMI-8226 = experiment: NCI60 one-dose screen; details: Homo sapiens
MOLT-4 = experiment: NCI60 five-dose screen; details: Homo sapiens
HOP-92 [10] = experiment: NCI60 one-dose screen; details: Homo sapiens
Melanoma panel = experiment: NCI60 five-dose screen, panel mean; details: Homo sapiens, read-out: Mean GI50
A549/ATCC = experiment: NCI60 five-dose screen; details: Homo sapiens
MALME-3M = experiment: NCI60 one-dose screen; details: Homo sapiens, read-out: Growth percent
OVCAR-4 [11] = experiment: NCI60 one-dose screen; details: Homo sapiens
MDA-MB-468 = experiment: NCI60 one-dose screen; details: Homo sapiens
COLO 205 = experiment: NCI60 one-dose screen; details: Homo sapiens
TK-10 = experiment: NCI60 one-dose screen; details: Homo sapiens
CAKI-1 = experiment: NCI60 five-dose screen; details: Homo sapiens
HOP-92 [12] = experiment: NCI60 five-dose screen; details: Homo sapiens
T-47D = experiment: NCI60 one-dose screen; details: Homo sapiens, T47D, read-out: Growth percent
U251 = experiment: NCI60 five-dose screen; details: Homo sapiens
UACC-257 = experiment: NCI60 five-dose screen; details: Homo sapiens
M14 = experiment: NCI60 five-dose screen; details: Homo sapiens
HCC-2998 = experiment: NCI60 five-dose screen; details: Homo sapiens

## CC[C@]12C=CCN3CC[C@@]4(c5ccc(OC)cc5N(C)[C@H]4[C@@](O)(C(=O)OC)[C@@H]1OC(=O)CCC[P+](c1ccc(OC)cc1)(c1ccc(OC)cc1)c1ccc(OC)cc1)[C@@H]32 [9b]
OVCAR-5 [1]; OVCAR-5, Ovarian Cancer, five-dose, read-out: GI50
  GI50: 1.77 µM
SK-MEL-2; SK-MEL-2, 10 μM, one-dose, read-out: Growth percent
  activity at 10 µM: -90.6%
MDA-MB-231/ATCC; MDA-MB-231/ATCC, 10 μM, one-dose, read-out: Growth percent
  activity at 10 µM: -97%
SK-MEL-28; SK-MEL-28, Melanoma, five-dose, read-out: GI50
  GI50: 0.453 µM
[2]; mean over Non-small Cell Lung Cancer panel
  GI50: 1.09 µM
NCI-H226; NCI-H226, 10 μM, one-dose, read-out: Growth percent
  activity at 10 µM: -80.3%
RXF 393; RXF 393, Renal Cancer, five-dose, read-out: GI50
  GI50: 0.482 µM
SW-620; SW-620, 10 μM, one-dose, read-out: Growth percent
  activity at 10 µM: -82.4%
HT29; HT-29, HT29, 10 μM, one-dose, read-out: Growth percent
  activity at 10 µM: -84.3%
KM12; KM12, KM12, Colon Cancer, five-dose, read-out: GI50
  GI50: 0.628 µM
NCI-H522 [3]; NCI-H522, 10 μM, one-dose, read-out: Growth percent
  activity at 10 µM: -89.4%
MDA-MB-435; MDA-MB-435, Melanoma, five-dose, read-out: GI50
  GI50: 0.48 µM
NCI-H460; NCI-H460, Non-small Cell Lung Cancer, five-dose, read-out: GI50
  GI50: 0.666 µM
OVCAR-4 [4]; OVCAR-4, Ovarian Cancer, five-dose, read-out: GI50
  GI50: 0.76 µM
HL-60(TB); HL-60, HL-60(TB), Leukemia, five-dose, read-out: GI50
  GI50: 0.256 µM
HCT-15; HCT-15, 10 μM, one-dose, read-out: Growth percent
  activity at 10 µM: -86.3%
DU-145; DU-145, 10 μM, one-dose, read-out: Growth percent
  activity at 10 µM: -75.4%
Renal Cancer panel; mean over Renal Cancer panel
  GI50: 3.01 µM
NCI-H522 [5]; NCI-H522, Non-small Cell Lung Cancer, five-dose, read-out: GI50
  GI50: 0.391 µM
OVCAR-5 [6]; OVCAR-5, 10 μM, one-dose, read-out: Growth percent
  activity at 10 µM: -96.5%
[7]; mean over 60 cell lines, 10 μM, one-dose
  activity at 10 µM: -76.2%
[7]; one-dose, 10 µM, average over cell lines
  average reduction / average cell death: more than 70%
ACHN; Renal Cancer, five-dose, read-out: GI50
  GI50: 0.458 µM
SK-OV-3 [8]; SK-OV-3, 10 μM, one-dose, read-out: Growth percent
  activity at 10 µM: -85.1%
LOX IMVI; 10 μM, one-dose
  activity at 10 µM: -96.4%
NCI-H23; NCI-H23, 10 μM, one-dose, read-out: Growth percent
  activity at 10 µM: -92.5%
A498; A498, Renal Cancer, five-dose, read-out: GI50
  GI50: 2.34 µM
786-0; 786-0, 10 μM, one-dose, read-out: Growth percent
  activity at 10 µM: -89.5%
SK-OV-3 [9]; SK-OV-3, Ovarian Cancer, five-dose, read-out: GI50
  GI50: 1.02 µM
RPMI-8226; RPMI-8226, 10 μM, one-dose, read-out: Growth percent
  activity at 10 µM: -45.5%
MOLT-4; MOLT-4, Leukemia, five-dose, read-out: GI50
  GI50: 0.933 µM
HOP-92 [10]; HOP-92, 10 μM, one-dose, read-out: Growth percent
  activity at 10 µM: -82.9%
Melanoma panel; mean over Melanoma panel
  GI50: 0.76 µM
A549/ATCC; A549/ATCC, Non-small Cell Lung Cancer, five-dose, read-out: GI50
  GI50: 0.731 µM
MALME-3M; MALME-3M, 10 μM, one-dose
  activity at 10 µM: -97.8%
OVCAR-4 [11]; OVCAR-4, 10 μM, one-dose, read-out: Growth percent
  activity at 10 µM: -75.3%
MDA-MB-468; MDA-MB-468, 10 μM, one-dose, read-out: Growth percent
  activity at 10 µM: -92.1%
COLO 205; COLO 205, 10 μM, one-dose, read-out: Growth percent
  activity at 10 µM: -64.4%
TK-10; TK-10, 10 μM, one-dose, read-out: Growth percent
  activity at 10 µM: -90.7%
CAKI-1; CAKI-1, Renal Cancer, five-dose, read-out: GI50
  GI50: 13.7 µM
HOP-92 [12]; HOP-92, Non-small Cell Lung Cancer, five-dose, read-out: GI50
  GI50: 0.344 µM
T-47D; T-47D, 10 μM, one-dose
  activity at 10 µM: -61.4%
U251; U-251, U251, CNS Cancer, five-dose, read-out: GI50
  GI50: 0.36 µM
UACC-257; UACC-257, UACC-257, Melanoma, five-dose, read-out: GI50
  GI50: 0.646 µM
M14; M14, Melanoma, five-dose, read-out: GI50
  GI50: 1.12 µM
HCC-2998; HCC-2998, Colon Cancer, five-dose, read-out: GI50
  GI50: 0.498 µM

## CC[C@]12C=CCN3CC[C@@]4(c5ccc(OC)cc5N(C)[C@H]4[C@@](O)(C(=O)OC)[C@@H]1OC(=O)CCC[P+](c1ccc(F)cc1)(c1ccc(F)cc1)c1ccc(F)cc1)[C@@H]32 [9c]
OVCAR-5 [1]; OVCAR-5
  GI50: 20.8 µM
SK-MEL-2; SK-MEL-2, read-out: Growth percent
  activity at 10 µM: -46.9%
MDA-MB-231/ATCC; MDA-MB-231, read-out: Growth percent
  activity at 10 µM: 22%
SK-MEL-28; SK-MEL-28
  GI50: 5.34 µM
[2]
  GI50: 19.6 µM
NCI-H226; NCI-H226, read-out: Growth percent
  activity at 10 µM: 46.9%
RXF 393; RXF 393
  GI50: 8.46 µM
SW-620; SW-620, read-out: Growth percent
  activity at 10 µM: 45.3%
HT29; HT-29, read-out: Growth percent
  activity at 10 µM: 15.7%
KM12; KM12
  GI50: 8.96 µM
NCI-H522 [3]; NCI-H522, read-out: Growth percent
  activity at 10 µM: -17.7%
MDA-MB-435; MDA-MB-435
  GI50: 8.14 µM
NCI-H460; NCI-H460
  GI50: 17 µM
OVCAR-4 [4]; OVCAR-4
  GI50: 16.2 µM
HL-60(TB); HL-60
  GI50: 1.77 µM
HCT-15; HCT-15, read-out: Growth percent
  activity at 10 µM: 99.6%
DU-145; DU-145, read-out: Growth percent
  activity at 10 µM: 47.7%
Renal Cancer panel
  GI50: 34.2 µM
NCI-H522 [5]; NCI-H522
  GI50: 3.88 µM
OVCAR-5 [6]; OVCAR-5, read-out: Growth percent
  activity at 10 µM: 67%
[7]; 60 cell
  activity at 10 µM: 26.3%
ACHN
  GI50: > 48.5 µM
SK-OV-3 [8]; SK-OV-3, read-out: Growth percent
  activity at 10 µM: 54.7%
LOX IMVI
  activity at 10 µM: 31.1%
NCI-H23; NCI-H23, read-out: Growth percent
  activity at 10 µM: 35.5%
A498; A498
  GI50: > 48.5 µM
786-0; 786-0, read-out: Growth percent
  activity at 10 µM: 80.9%
SK-OV-3 [9]; SK-OV-3
  GI50: 15.8 µM
RPMI-8226; RPMI-8226, read-out: Growth percent
  activity at 10 µM: 24.4%
MOLT-4; MOLT-4
  GI50: 9.69 µM
HOP-92 [10]; HOP-92, read-out: Growth percent
  activity at 10 µM: -6.2%
Melanoma panel
  GI50: 8.13 µM
A549/ATCC; A549
  GI50: 21.5 µM
MALME-3M; Malme-3M
  activity at 10 µM: -32.6%
OVCAR-4 [11]; OVCAR-4, read-out: Growth percent
  activity at 10 µM: 48.6%
MDA-MB-468; MDA-MB-468, read-out: Growth percent
  activity at 10 µM: -74.6%
COLO 205; COLO 205, read-out: Growth percent
  activity at 10 µM: -18.9%
TK-10; TK-10, read-out: Growth percent
  activity at 10 µM: 63.9%
CAKI-1; CAKI-1
  GI50: > 48.5 µM
HOP-92 [12]; HOP-92
  GI50: 5.44 µM
T-47D
  activity at 10 µM: 10.4%
U251; U-251
  GI50: 9.36 µM
UACC-257; UACC-257
  GI50: 4.67 µM
M14; M14
  GI50: 9.1 µM
HCC-2998; HCC 2998
  GI50: 9.53 µM
